Experimental data reported in paper PMC11219871, “Epigenetic-based differentiation therapy for Acute Myeloid Leukemia” (Nature Communications, 2024).

Legend:
Experiment in all cases: Epigenetic panel (BPS Bioscience)
Type in all cases: biochemical
DNMT3A/3L = molecular target: T1, DNMT3A/3L (Homo sapiens, UniProt Q9Y6K1)
T1 construct: purchased BPS Bioscience (contracted assay service)
Description: (§1) The selectivity of CM-444 and CM-1758 against other epigenetic targets, including histone demethylase (JMJD2A, JMJD2B, JMJD2C, JMJD2D, JMJD2E, JMJD3, JMJD1A, LSD1, Jarid1A, Jarid1B, Jarid1C, FBXL10, FBXL11, JHDM1D, JMJD1B, PHF8, LSD2 and UTX); histone acetyltransferases (GCN5, P300); histone methyltransferases (G9a, GLP, MLL1, SET7/9, SUV39H1, SUV39H2, PRMT1, PRMT3, PRMT4, PRMT5, PRMT6, PRMT8, PRMT9, NSD1, NSD2, EZH1, EZH2, SETDB1, SETD2, SET8, SUV4-20H1, SMYD2, SMYD3, DOT1L, EZH2 (A677G), EZH2 (A677G), EZH2 (A738T), EZH2 (Y641S), EZH2 (P132S), EZH2 (Y641C), EZH2 (Y641F), EZH2 (Y641H), EZH2 (Y641N)); bromodomains (ATAD2B, ATAD2A, BRD1, BRD9, BPTF/FALZ, CeCR2, BRPF3, BRD3 (BD1 + BD2), BAZ2B, WDR9, TAF1 (BD2), TAF1L (BD2), TAF1L (BD1 + BD2), BRD2 (BD1), BRD2 (BD2), BRD2 (BD1 + BD2), BRD3 (BD1), BRD3 (BD2), BRD4 (BD1), BRD4 (BD2), BRD4 (BD1 + BD2), BRDT (BD1), BRDT (BD1 + BD2), CREBBP, SMARCA2A, SMARCA4/BRG1); DNA methyltranferases (DNMT1, DNMT3A/3L and DNMT3B/3L), and sirtuin histone deacetylases (SIRT1, SIRT2, SIRT3, SIRT5 and SIRT6), were determined by BPS Bioscience (http://www.bpsbioscience.com/index.ph). Binding experiments were performed in duplicate at a concentration of 10 μM.

EZH2 (A738T) = molecular target: T2, EZH2 (A738T) (Homo sapiens, UniProt Q15910)
T2 construct: purchased BPS Bioscience; Eurofins (HDAC4, 5, 7-11)
Description: as §1

FBXL11 = molecular target: T3, FBXL11 (Homo sapiens, UniProt Q9Y2K7)
T3 construct: purchased BPS Bioscience; Eurofins (HDAC4, 5, 7-11)
Description: as §1

JHDM1D = molecular target: T4, JHDM1D (Homo sapiens, UniProt Q6ZMT4)
T4 construct: purchased BPS Bioscience; Eurofins (HDAC4, 5, 7-11)
Description: as §1

JMJD1A = molecular target: T5, JMJD1A (Homo sapiens, UniProt Q9Y4C1)
T5 construct: purchased BPS Bioscience; Eurofins (HDAC4, 5, 7-11)
Description: as §1

JMJD2B = molecular target: T6, JMJD2B (Homo sapiens, UniProt O94953)
T6 construct: purchased BPS Bioscience; Eurofins (HDAC4, 5, 7-11)
Description: as §1

JMJD2D = molecular target: T7, JMJD2D (Homo sapiens, UniProt Q6B0I6)
T7 construct: purchased BPS Bioscience; Eurofins (HDAC4, 5, 7-11)
Description: as §1

JMJD2E = molecular target: T8, JMJD2E (Homo sapiens, UniProt B2RXH2)
T8 construct: purchased BPS Bioscience; Eurofins (HDAC4, 5, 7-11)
Description: as §1

Jarid1A = molecular target: T9, Jarid1A (Homo sapiens, UniProt P29375)
T9 construct: purchased BPS Bioscience; Eurofins (HDAC4, 5, 7-11)
Description: as §1

Jarid1C = molecular target: T10, Jarid1C (Homo sapiens, UniProt P41229)
T10 construct: purchased BPS Bioscience; Eurofins (HDAC4, 5, 7-11)
Description: as §1

MLL1 = molecular target: T11, MLL1 (Homo sapiens, UniProt Q03164)
T11 construct: purchased BPS Bioscience; Eurofins (HDAC4, 5, 7-11)
Description: as §1

NSD1 = molecular target: T12, NSD1 (Homo sapiens, UniProt Q96L73)
T12 construct: purchased BPS Bioscience; Eurofins (HDAC4, 5, 7-11)
Description: as §1

NSD2 = molecular target: T13, NSD2 (Homo sapiens, UniProt O96028)
T13 construct: purchased BPS Bioscience; Eurofins (HDAC4, 5, 7-11)
Description: as §1

PRMT1 = molecular target: T14, PRMT1 (Homo sapiens, UniProt Q99873)
T14 construct: purchased BPS Bioscience; Eurofins (HDAC4, 5, 7-11)
Description: as §1

PRMT4 = molecular target: T15, PRMT4 (Homo sapiens, UniProt Q86X55)
T15 construct: purchased BPS Bioscience; Eurofins (HDAC4, 5, 7-11)
Description: as §1

PRMT5 = molecular target: T16, PRMT5 (Homo sapiens, UniProt O14744)
T16 construct: purchased BPS Bioscience; Eurofins (HDAC4, 5, 7-11)
Description: as §1

SET8 = molecular target: T17, SET8 (Homo sapiens, UniProt Q9NQR1)
T17 construct: purchased BPS Bioscience; Eurofins (HDAC4, 5, 7-11)
Description: as §1

SIRT3 = molecular target: T18, SIRT3 (Homo sapiens, UniProt Q9NTG7)
T18 construct: purchased BPS Bioscience; Eurofins (HDAC4, 5, 7-11)
Description: as §1

SUV39H1 = molecular target: T19, SUV39H1 (Homo sapiens, UniProt O43463)
T19 construct: purchased BPS Bioscience; Eurofins (HDAC4, 5, 7-11)
Description: as §1

UTX = molecular target: T20, UTX (Homo sapiens, UniProt O15550)
T20 construct: purchased BPS Bioscience (contracted assay service)
Description: as §1

T20 sequence (O15550 whole entry): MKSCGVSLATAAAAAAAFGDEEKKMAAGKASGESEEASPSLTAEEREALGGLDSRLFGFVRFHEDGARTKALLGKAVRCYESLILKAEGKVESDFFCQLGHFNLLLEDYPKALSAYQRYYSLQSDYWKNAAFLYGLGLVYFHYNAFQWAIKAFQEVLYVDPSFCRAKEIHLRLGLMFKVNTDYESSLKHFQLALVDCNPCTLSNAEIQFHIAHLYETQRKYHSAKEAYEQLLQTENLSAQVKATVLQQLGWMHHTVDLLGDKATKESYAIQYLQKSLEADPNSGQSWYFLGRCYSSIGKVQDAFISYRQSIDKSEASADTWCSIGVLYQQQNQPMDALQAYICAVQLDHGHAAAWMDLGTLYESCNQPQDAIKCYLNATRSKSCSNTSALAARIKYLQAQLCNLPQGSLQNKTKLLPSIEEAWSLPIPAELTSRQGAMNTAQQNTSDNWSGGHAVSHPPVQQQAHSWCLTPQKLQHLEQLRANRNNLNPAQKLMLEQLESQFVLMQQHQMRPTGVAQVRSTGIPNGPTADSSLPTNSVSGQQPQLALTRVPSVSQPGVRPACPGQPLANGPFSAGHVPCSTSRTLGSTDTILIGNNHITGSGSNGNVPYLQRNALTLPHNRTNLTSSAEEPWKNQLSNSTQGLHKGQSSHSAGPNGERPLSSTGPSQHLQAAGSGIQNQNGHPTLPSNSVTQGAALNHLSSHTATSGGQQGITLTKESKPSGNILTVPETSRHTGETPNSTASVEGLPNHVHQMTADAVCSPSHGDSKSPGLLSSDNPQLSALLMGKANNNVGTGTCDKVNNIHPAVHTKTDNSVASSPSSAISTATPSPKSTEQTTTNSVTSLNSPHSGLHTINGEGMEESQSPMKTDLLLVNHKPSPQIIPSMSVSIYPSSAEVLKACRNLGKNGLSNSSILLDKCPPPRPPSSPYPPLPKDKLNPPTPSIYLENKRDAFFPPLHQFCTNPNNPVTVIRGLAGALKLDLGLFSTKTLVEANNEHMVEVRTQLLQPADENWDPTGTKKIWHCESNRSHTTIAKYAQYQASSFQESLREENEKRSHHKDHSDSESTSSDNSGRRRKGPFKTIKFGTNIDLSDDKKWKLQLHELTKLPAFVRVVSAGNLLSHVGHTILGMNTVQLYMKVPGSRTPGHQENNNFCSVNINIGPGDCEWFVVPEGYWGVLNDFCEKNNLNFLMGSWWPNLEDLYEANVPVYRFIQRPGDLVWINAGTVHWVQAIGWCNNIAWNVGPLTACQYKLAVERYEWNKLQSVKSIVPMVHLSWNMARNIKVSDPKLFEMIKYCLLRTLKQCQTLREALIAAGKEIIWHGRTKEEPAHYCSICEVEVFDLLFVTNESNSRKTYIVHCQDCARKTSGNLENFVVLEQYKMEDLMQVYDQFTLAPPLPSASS
T1 sequence (Q9Y6K1 whole entry, looked up): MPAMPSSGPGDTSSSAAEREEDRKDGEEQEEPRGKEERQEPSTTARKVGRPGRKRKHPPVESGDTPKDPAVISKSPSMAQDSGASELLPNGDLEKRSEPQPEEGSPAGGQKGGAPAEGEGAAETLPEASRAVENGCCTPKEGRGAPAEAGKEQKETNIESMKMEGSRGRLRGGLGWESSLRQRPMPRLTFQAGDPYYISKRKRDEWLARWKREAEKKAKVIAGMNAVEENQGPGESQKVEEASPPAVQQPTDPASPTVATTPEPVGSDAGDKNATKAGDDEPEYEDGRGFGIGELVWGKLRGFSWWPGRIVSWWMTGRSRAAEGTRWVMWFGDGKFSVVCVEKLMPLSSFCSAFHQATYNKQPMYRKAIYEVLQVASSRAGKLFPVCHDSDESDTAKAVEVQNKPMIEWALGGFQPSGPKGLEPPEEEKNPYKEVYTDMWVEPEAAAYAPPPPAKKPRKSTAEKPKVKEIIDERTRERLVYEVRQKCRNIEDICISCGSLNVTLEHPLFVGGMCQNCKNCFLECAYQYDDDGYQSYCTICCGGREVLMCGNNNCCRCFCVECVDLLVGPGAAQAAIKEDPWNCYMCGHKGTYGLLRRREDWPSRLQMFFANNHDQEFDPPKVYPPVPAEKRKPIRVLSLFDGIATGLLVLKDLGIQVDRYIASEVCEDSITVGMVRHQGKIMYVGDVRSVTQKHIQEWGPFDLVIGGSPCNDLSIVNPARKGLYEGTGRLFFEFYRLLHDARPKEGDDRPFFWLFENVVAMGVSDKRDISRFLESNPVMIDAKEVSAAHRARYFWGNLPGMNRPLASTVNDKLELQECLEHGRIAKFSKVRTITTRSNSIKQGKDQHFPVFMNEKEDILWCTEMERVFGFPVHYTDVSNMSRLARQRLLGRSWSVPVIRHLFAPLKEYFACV
T1 sequence (Q9UJW3 whole entry partner): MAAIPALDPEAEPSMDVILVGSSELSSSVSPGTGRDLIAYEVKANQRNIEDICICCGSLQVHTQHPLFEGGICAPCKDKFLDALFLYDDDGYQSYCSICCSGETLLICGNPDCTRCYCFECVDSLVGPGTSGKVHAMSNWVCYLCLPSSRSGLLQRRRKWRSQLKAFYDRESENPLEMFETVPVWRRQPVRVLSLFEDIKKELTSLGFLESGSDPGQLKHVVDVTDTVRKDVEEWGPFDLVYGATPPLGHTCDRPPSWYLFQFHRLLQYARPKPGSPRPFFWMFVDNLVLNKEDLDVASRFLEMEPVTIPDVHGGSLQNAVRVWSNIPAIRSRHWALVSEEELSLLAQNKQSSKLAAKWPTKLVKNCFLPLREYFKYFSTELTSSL
T16 sequence (O14744 whole entry): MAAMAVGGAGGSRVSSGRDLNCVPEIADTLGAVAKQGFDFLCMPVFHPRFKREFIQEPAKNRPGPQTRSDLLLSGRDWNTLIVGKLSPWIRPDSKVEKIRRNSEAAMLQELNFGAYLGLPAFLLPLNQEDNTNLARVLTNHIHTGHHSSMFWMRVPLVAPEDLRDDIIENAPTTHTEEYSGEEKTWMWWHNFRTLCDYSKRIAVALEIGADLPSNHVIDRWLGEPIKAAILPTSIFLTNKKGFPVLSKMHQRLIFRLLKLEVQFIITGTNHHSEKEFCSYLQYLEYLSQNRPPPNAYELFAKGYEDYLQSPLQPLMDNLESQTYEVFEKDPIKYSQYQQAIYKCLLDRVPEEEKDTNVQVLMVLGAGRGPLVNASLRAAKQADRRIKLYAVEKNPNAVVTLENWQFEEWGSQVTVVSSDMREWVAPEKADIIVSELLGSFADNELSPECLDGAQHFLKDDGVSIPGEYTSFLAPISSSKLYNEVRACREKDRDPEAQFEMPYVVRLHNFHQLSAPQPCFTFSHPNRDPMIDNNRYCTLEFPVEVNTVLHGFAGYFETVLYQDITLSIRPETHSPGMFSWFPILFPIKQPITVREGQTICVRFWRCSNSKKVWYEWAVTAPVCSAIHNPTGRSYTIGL
T16 sequence (Q9BQA1 whole entry partner): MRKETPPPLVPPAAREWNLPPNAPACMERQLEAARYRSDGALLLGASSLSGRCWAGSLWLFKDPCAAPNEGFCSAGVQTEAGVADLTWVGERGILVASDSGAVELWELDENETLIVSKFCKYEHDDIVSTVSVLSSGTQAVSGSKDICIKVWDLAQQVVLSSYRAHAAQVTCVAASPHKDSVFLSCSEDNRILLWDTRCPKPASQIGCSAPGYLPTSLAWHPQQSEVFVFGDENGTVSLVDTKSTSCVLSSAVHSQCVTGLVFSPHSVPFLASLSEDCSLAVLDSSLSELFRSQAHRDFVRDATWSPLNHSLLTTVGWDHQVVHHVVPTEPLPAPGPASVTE
T8 sequence (B2RXH2 whole entry): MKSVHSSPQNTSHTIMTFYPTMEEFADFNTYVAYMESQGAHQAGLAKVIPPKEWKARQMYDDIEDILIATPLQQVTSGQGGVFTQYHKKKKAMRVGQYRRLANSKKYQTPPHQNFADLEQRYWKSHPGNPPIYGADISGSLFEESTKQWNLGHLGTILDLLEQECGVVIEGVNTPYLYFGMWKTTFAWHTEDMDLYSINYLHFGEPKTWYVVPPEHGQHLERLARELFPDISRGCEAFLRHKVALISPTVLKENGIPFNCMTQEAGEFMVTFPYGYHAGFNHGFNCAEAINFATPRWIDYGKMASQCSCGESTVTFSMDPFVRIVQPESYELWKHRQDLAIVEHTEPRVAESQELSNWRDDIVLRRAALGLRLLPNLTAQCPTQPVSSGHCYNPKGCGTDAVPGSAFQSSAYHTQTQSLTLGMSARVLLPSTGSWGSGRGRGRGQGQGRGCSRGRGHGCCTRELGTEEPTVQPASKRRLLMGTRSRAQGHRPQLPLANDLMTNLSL
T19 sequence (O43463 whole entry): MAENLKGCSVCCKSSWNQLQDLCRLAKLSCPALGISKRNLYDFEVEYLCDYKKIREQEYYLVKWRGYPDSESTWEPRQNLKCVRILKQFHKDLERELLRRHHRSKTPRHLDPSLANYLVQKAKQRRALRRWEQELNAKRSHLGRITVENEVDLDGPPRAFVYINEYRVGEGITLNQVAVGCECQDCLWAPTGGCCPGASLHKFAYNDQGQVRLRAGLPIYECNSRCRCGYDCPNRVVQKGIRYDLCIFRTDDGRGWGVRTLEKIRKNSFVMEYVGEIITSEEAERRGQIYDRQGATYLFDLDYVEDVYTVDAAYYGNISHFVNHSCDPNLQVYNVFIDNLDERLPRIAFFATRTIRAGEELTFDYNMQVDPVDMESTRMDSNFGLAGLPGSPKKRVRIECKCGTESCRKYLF
T17 sequence (Q9NQR1 whole entry): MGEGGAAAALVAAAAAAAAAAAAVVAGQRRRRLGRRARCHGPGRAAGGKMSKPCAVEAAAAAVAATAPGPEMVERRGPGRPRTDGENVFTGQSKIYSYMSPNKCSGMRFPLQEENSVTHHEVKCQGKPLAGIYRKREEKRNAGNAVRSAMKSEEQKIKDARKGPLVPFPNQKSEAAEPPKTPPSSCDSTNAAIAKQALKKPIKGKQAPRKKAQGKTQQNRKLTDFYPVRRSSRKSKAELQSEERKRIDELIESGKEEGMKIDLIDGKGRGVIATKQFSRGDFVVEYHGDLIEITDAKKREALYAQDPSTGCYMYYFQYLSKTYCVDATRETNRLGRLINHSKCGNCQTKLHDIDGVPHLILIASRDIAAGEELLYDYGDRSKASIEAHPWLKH

Row | Compound | inhibition at 10 µM (DNMT3A/3L) [%] | inhibition at 10 µM (EZH2 (A738T)) [%] | inhibition at 10 µM (FBXL11) [%] | inhibition at 10 µM (JHDM1D) [%] | inhibition at 10 µM (JMJD1A) [%] | inhibition at 10 µM (JMJD2B) [%] | inhibition at 10 µM (JMJD2D) [%] | inhibition at 10 µM (JMJD2E) [%] | inhibition at 10 µM (Jarid1A) [%] | inhibition at 10 µM (Jarid1C) [%] | inhibition at 10 µM (MLL1) [%] | inhibition at 10 µM (NSD1) [%] | inhibition at 10 µM (NSD2) [%] | inhibition at 10 µM (PRMT1) [%] | inhibition at 10 µM (PRMT4) [%] | inhibition at 10 µM (PRMT5) [%] | inhibition at 10 µM (SET8) [%] | inhibition at 10 µM (SIRT3) [%] | inhibition at 10 µM (SUV39H1) [%] | IC50 (UTX) [µM] | further results
1 | COc1cc2nc(-c3ccc(C)o3)cc(NCC3CCN(c4ncc(C(=O)NO)cn4)CC3)c2cc1OC [CM-444, 2-[4-[[[6,7-dimethoxy-2-(5-methyl-2-furyl)-4-quinolyl]amino]methyl]-1-piperidyl]pyrimidine-5-carbohydroxamic acid] | 92 | 5 | 33 | 4 | 3 | 1 | 5 | 5 | 16 | 2 | 0 | 14 | 35 | 0 | 0 | 0 | 4 | 0 | 1 | 1.5 | IC50 (DNMT3A/3L): 1.8 µM; inhibition at 10 µM (UTX): 95%
2 | COc1cc2nc(-c3cc(C)oc3C)cc(NCC3CCN(c4ncc(C(=O)NO)cn4)CC3)c2cc1OC [CM-1758, 2-[4-[[[2-(2,5-dimethyl-3-furyl)-6,7-dimethoxy-4-quinolyl]amino]methyl] -1-piperidyl]pyrimidine-5-carbohydroxamic acid] | 44 | 5 | 2 | 37 | 12 | 10 | 0 | 1 | 47 | 26 | 1 | 10 | 16 | 0 | 0 | 7 | 9 | 9 | 1 | 2.2 | inhibition at 10 µM (UTX): 91%
